Results: patent US9326973B2, “Hepatitis C virus inhibitors” (priority 2012, dated 2016)

Test system: HCV replicon, genotype-1a variant with glutamine 30 changed to glutamate in the NS5A protein
Experiment: microbe, parasite or virus in culture
Type: cell-based, HCV genotype 1a
Conditions: HCV replicon genotype 1a Q30E (Q→E) variant; test compound titrated with an NS5A-targeting compound (BMS-790052 fixed at 200 nM); ranking of synergist activity
Method in brief: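 Synergy was assessed by combining several fixed amounts of an NS5A-targeting compound with a titration of the second compound of interest.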

Row | SMILES | Fold-Synergistic 1a (Q30E) [fold]
1 | O=C(Cc1ccccc1)N1CCC[C@H]1c1ncc(-c2ccc(-c3ccc(-c4cnc([C@@H]5CCCN5C(=O)Cc5ccccc5)[nH]4)cc3)cc2)[nH]1 [Compound S-107] | <10
2 | CCC(=O)N1CCC[C@H]1c1ncc(-c2ccc(-c3ccc(-c4cnc([C@@H]5CCCN5C(=O)CC)[nH]4)cc3)cc2)[nH]1 [Compound S-108] | <10
3 | O=C(C1CC1)N1CCC[C@H]1c1ncc(-c2ccc(-c3ccc(-c4cnc([C@@H]5CCCN5C(=O)C5CC5)[nH]4)cc3)cc2)[nH]1 [Compound S-109] | <10
4 | O=C(CC1CC1)N1CCC[C@H]1c1ncc(-c2ccc(-c3ccc(-c4cnc([C@@H]5CCCN5C(=O)CC5CC5)[nH]4)cc3)cc2)[nH]1 [Compound S-110] | <10
5 | O=C([C@H]1CCCO1)N1CCC[C@H]1c1ncc(-c2ccc(-c3ccc(-c4cnc([C@@H]5CCCN5C(=O)[C@H]5CCCO5)[nH]4)cc3)cc2)[nH]1 [Compound S-111] | <10
6 | CC(=O)N1CCC[C@H]1c1ncc(-c2ccc(-c3ccc(-c4cnc([C@@H]5CCCN5C(C)=O)[nH]4)cc3)cc2)[nH]1 [Compound S-113] | <10
7 | O=C(c1ccccc1Oc1ccccc1)N1CCC[C@H]1c1ncc(-c2ccc(-c3ccc(-c4cnc([C@@H]5CCCN5C(=O)c5ccccc5Oc5ccccc5)[nH]4)cc3)cc2)[nH]1 [Compound S-114] | <10
8 | COC(=O)c1ccccc1C(=O)N1CCC[C@H]1c1ncc(-c2ccc(-c3ccc(-c4cnc([C@@H]5CCCN5C(=O)c5ccccc5C(=O)OC)[nH]4)cc3)cc2)[nH]1 [Compound S-115] | <10
9 | O=C(c1cccc(Oc2ccccc2)c1)N1CCC[C@H]1c1ncc(-c2ccc(-c3ccc(-c4cnc([C@@H]5CCCN5C(=O)c5cccc(Oc6ccccc6)c5)[nH]4)cc3)cc2)[nH]1 [Compound S-116] | <10
10 | O=C(c1ccc(-c2ccccc2)cc1)N1CCC[C@H]1c1ncc(-c2ccc(-c3ccc(-c4cnc([C@@H]5CCCN5C(=O)c5ccc(-c6ccccc6)cc5)[nH]4)cc3)cc2)[nH]1 [Compound S-117] | >10
11 | Cc1onc(-c2ccccc2)c1C(=O)N1CCC[C@H]1c1ncc(-c2ccc(-c3ccc(-c4cnc([C@@H]5CCCN5C(=O)c5c(-c6ccccc6)noc5C)[nH]4)cc3)cc2)[nH]1 [Compound S-118] | <10
12 | O=C(c1cccc2ccccc12)N1CCC[C@H]1c1ncc(-c2ccc(-c3ccc(-c4cnc([C@@H]5CCCN5C(=O)c5cccc6ccccc56)[nH]4)cc3)cc2)[nH]1 [Compound S-119] | >10
13 | O=C(c1cc2ccccc2[nH]1)N1CCC[C@H]1c1ncc(-c2ccc(-c3ccc(-c4cnc([C@@H]5CCCN5C(=O)c5cc6ccccc6[nH]5)[nH]4)cc3)cc2)[nH]1 [Compound S-120] | <10
14 | O=C(c1ccc2c(c1)OCO2)N1CCC[C@H]1c1ncc(-c2ccc(-c3ccc(-c4cnc([C@@H]5CCCN5C(=O)c5ccc6c(c5)OCO6)[nH]4)cc3)cc2)[nH]1 [Compound S-121] | <10
15 | O=C(c1cc2ccccc2o1)N1CCC[C@H]1c1ncc(-c2ccc(-c3ccc(-c4cnc([C@@H]5CCCN5C(=O)c5cc6ccccc6o5)[nH]4)cc3)cc2)[nH]1 [Compound S-122] | >10
16 | O=C(c1ccc2ccccc2n1)N1CCC[C@H]1c1ncc(-c2ccc(-c3ccc(-c4cnc([C@@H]5CCCN5C(=O)c5ccc6ccccc6n5)[nH]4)cc3)cc2)[nH]1 [Compound S-123] | >100
17 | O=C(c1cnc2ccccc2c1)N1CCC[C@H]1c1ncc(-c2ccc(-c3ccc(-c4cnc([C@@H]5CCCN5C(=O)c5cnc6ccccc6c5)[nH]4)cc3)cc2)[nH]1 [Compound S-124] | >10
18 | O=C(c1ccnc2ccccc12)N1CCC[C@H]1c1ncc(-c2ccc(-c3ccc(-c4cnc([C@@H]5CCCN5C(=O)c5ccnc6ccccc56)[nH]4)cc3)cc2)[nH]1 [Compound S-125] | <10
19 | O=C(c1cnc2ccccc2n1)N1CCC[C@H]1c1ncc(-c2ccc(-c3ccc(-c4cnc([C@@H]5CCCN5C(=O)c5cnc6ccccc6n5)[nH]4)cc3)cc2)[nH]1 [Compound S-126] | >100
20 | N#Cc1ccccc1C(=O)N1CCC[C@H]1c1ncc(-c2ccc(-c3ccc(-c4cnc([C@@H]5CCCN5C(=O)c5ccccc5C#N)[nH]4)cc3)cc2)[nH]1 [Compound S-127] | <10
21 | O=C(c1cccc(-c2ccccc2)c1)N1CCC[C@H]1c1ncc(-c2ccc(-c3ccc(-c4cnc([C@@H]5CCCN5C(=O)c5cccc(-c6ccccc6)c5)[nH]4)cc3)cc2)[nH]1 [Compound S-128] | >10

Row | SMILES | Fold-Synergistic 1a (Q30E) [fold]
22 | Cc1nn(-c2ccccc2)nc1C(=O)N1CCC[C@H]1c1ncc(-c2ccc(-c3ccc(-c4cnc([C@@H]5CCCN5C(=O)c5nn(-c6ccccc6)nc5C)[nH]4)cc3)cc2)[nH]1 [Compound S-129] | >100
23 | O=C(c1csc(-c2cccnc2)n1)N1CCC[C@H]1c1ncc(-c2ccc(-c3ccc(-c4cnc([C@@H]5CCCN5C(=O)c5csc(-c6cccnc6)n5)[nH]4)cc3)cc2)[nH]1 [Compound S-130] | >10
24 | Cc1cc(C(=O)N2CCC[C@H]2c2ncc(-c3ccc(-c4ccc(-c5cnc([C@@H]6CCCN6C(=O)c6cc(C)nc(Cl)c6)[nH]5)cc4)cc3)[nH]2)cc(Cl)n1 [Compound S-131] | >10
25 | Cc1nn(C)c2ncc(C(=O)N3CCC[C@H]3c3ncc(-c4ccc(-c5ccc(-c6cnc([C@@H]7CCCN7C(=O)c7cnc8c(c(C)nn8C)c7Cl)[nH]6)cc5)cc4)[nH]3)c(Cl)c12 [Compound S-132] | <10
26 | O=C(c1cnccc1C(F)(F)F)N1CCC[C@H]1c1ncc(-c2ccc(-c3ccc(-c4cnc([C@@H]5CCCN5C(=O)c5cnccc5C(F)(F)F)[nH]4)cc3)cc2)[nH]1 [Compound S-134] | <10
27 | O=C(c1cnc2n(c1=O)CCS2)N1CCC[C@H]1c1ncc(-c2ccc(-c3ccc(-c4cnc([C@@H]5CCCN5C(=O)c5cnc6n(c5=O)CCS6)[nH]4)cc3)cc2)[nH]1 [Compound S-135] | <10
28 | O=C(c1ccc2ncsc2c1)N1CCC[C@H]1c1ncc(-c2ccc(-c3ccc(-c4cnc([C@@H]5CCCN5C(=O)c5ccc6ncsc6c5)[nH]4)cc3)cc2)[nH]1 [Compound S-136] | <10
29 | O=C(c1ccc(-c2ccccc2)o1)N1CCC[C@H]1c1ncc(-c2ccc(-c3ccc(-c4cnc([C@@H]5CCCN5C(=O)c5ccc(-c6ccccc6)o5)[nH]4)cc3)cc2)[nH]1 [Compound S-137] | >10
30 | O=C(c1csc(-c2ccccc2)n1)N1CCC[C@H]1c1ncc(-c2ccc(-c3ccc(-c4cnc([C@@H]5CCCN5C(=O)c5csc(-c6ccccc6)n5)[nH]4)cc3)cc2)[nH]1 [Compound S-138] | >100
31 | O=C(c1cccc2c1OCC2)N1CCC[C@H]1c1ncc(-c2ccc(-c3ccc(-c4cnc([C@@H]5CCCN5C(=O)c5cccc6c5OCC6)[nH]4)cc3)cc2)[nH]1 [Compound S-139] | >10
32 | O=C(c1ccc(C(F)(F)F)nc1)N1CCC[C@H]1c1ncc(-c2ccc(-c3ccc(-c4cnc([C@@H]5CCCN5C(=O)c5ccc(C(F)(F)F)nc5)[nH]4)cc3)cc2)[nH]1 [Compound S-140] | >10
33 | O=C(c1nc2ccccc2s1)N1CCC[C@H]1c1ncc(-c2ccc(-c3ccc(-c4cnc([C@@H]5CCCN5C(=O)c5nc6ccccc6s5)[nH]4)cc3)cc2)[nH]1 [Compound S-141] | >10
34 | Cn1cc(C(=O)N2CCC[C@H]2c2ncc(-c3ccc(-c4ccc(-c5cnc([C@@H]6CCCN6C(=O)c6cn(C)c7ccccc67)[nH]5)cc4)cc3)[nH]2)c2ccccc21 [Compound S-142] | >10
35 | O=C(CC(c1ccccc1)c1ccccc1)N1CCC[C@H]1c1ncc(-c2ccc(-c3ccc(-c4cnc([C@@H]5CCCN5C(=O)CC(c5ccccc5)c5ccccc5)[nH]4)cc3)cc2)[nH]1 [Compound S-143] | >10
36 | O=C(Cc1cccc2ccccc12)N1CCC[C@H]1c1ncc(-c2ccc(-c3ccc(-c4cnc([C@@H]5CCCN5C(=O)Cc5cccc6ccccc56)[nH]4)cc3)cc2)[nH]1 [Compound S-144] | >10
37 | O=C(Cc1ccc2ccccc2c1)N1CCC[C@H]1c1ncc(-c2ccc(-c3ccc(-c4cnc([C@@H]5CCCN5C(=O)Cc5ccc6ccccc6c5)[nH]4)cc3)cc2)[nH]1 [Compound S-145] | >10
38 | O=C(C(c1ccccc1)c1ccccc1)N1CCC[C@H]1c1ncc(-c2ccc(-c3ccc(-c4cnc([C@@H]5CCCN5C(=O)C(c5ccccc5)c5ccccc5)[nH]4)cc3)cc2)[nH]1 [Compound S-146] | <10
39 | O=C(Cc1ccc(-c2ccccc2)cc1)N1CCC[C@H]1c1ncc(-c2ccc(-c3ccc(-c4cnc([C@@H]5CCCN5C(=O)Cc5ccc(-c6ccccc6)cc5)[nH]4)cc3)cc2)[nH]1 [Compound S-147] | <10
40 | O=C(Cc1c[nH]c2ccccc12)N1CCC[C@H]1c1ncc(-c2ccc(-c3ccc(-c4cnc([C@@H]5CCCN5C(=O)Cc5c[nH]c6ccccc56)[nH]4)cc3)cc2)[nH]1 [Compound S-148] | >10
41 | O=C(Cc1ccccn1)N1CCC[C@H]1c1ncc(-c2ccc(-c3ccc(-c4cnc([C@@H]5CCCN5C(=O)Cc5ccccn5)[nH]4)cc3)cc2)[nH]1 [Compound S-149] | <10
